We go through two compounds from patent publication US20060074035A1, “Dinucleotide inhibitors of de novo RNA polymerases for treatment or prevention of viral infections” (priority 2002, published 2006).

Holding throughout (type): biochemical
For assay [1], the target named is T1, HCV NS5B (Hepatitis C virus genotype 1a, UniProt P27958).
T1 construct: a particularly preferred RNA polymerases is the HCV NS5B polypeptide
The assay is described as follows: HCV NS5B de novo initiation assay, GTP as initiation nucleotide. From the text:
(§1) In vitro RNA-dependent RNA polymerase assay was used to evaluate activity of dinucleotide compounds as inhibitors of HCV polymerase. Examples of such compounds are illustrated below as compounds A and B in.

Assay [2] has as its target T2, HCV polymerase (Hepatitis C virus genotype 1a, UniProt P27958).
T2 construct: a particularly preferred RNA polymerases is the HCV NS5B polypeptide
The assay is described as follows: HCV NS5B de novo initiation assay, ATP as initiation nucleotide. As to the method: as §1
To further determine whether this inhibitory effect of HCV polymerase is specific for a particular initiation nucleotide, de novo initiation assay was performed using ATP as the initiation nucleotide (template RNA: 5′ AAAAAAAAGU 3′).

The target of assay [3] is T2, HCV polymerase. The assay is described as follows: GpC dinucleotide-primed RNA synthesis. From the text:
(§2) It was also observed that certain dinucleotide analogues were able to inhibit dinucleotide-primed RNA synthesis. […] Furthermore, this inhibitory activity is sequence specific. When a different dinucleotide primer (GpG) was used to prime RNA synthesis from the. […] These observations further support the model that base pairing capability between the dinucleotide compound and the template terminal bases is important for achieving sufficient inhibition of HCV polymerase.

For assay [4], the target named is T2, HCV polymerase. The assay is described as follows: GpG dinucleotide-primed RNA synthesis. The following applies: dinucleotide primer GpG; RNA template 5′ AAAAAAAACC 3′; FIG. 4.
Description: as §2

T2 sequence (P27958 2421-3011): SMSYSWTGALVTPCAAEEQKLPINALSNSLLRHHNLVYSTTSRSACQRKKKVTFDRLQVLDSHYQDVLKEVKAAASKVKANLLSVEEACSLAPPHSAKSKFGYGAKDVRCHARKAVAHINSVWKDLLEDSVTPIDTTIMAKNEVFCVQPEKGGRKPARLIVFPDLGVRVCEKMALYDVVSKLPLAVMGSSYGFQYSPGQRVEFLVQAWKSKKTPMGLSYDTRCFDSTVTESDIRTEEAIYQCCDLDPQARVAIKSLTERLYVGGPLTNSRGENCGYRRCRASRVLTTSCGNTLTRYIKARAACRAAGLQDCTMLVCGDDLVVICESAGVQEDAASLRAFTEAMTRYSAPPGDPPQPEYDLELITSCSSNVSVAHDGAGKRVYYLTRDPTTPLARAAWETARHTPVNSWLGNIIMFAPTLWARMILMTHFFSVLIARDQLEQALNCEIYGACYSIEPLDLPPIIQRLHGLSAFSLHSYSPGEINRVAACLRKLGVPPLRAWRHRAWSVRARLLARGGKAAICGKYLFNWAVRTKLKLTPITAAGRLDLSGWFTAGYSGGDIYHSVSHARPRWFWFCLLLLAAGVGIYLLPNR
T1 sequence (P27958 2421-3011): as above

As for `COC1C(OP(O)(=S)OCC2CC(O)C(n3ccc(N)nc3=O)O2)C(COP(=O)(O)O)OC1n1cnc2c(=O)[nH]c(N)nc21` (stereo not shown) [compound A], the half-inhibitory concentration (IC50) – broadly, the point on the concentration scale where inhibition reaches its midpoint – in assay [1] is 20 µM; in assay [2], ~90 µM; in assay [3], 50 µM. Further, the “inhibition of polymerase activity (GpG-primed RNA synthesis)” value in assay [4] is “lost the ability to inhibit the polymerase activity”.
Take `COC1[C@@H](COP(O)(=S)OC2[C@@H](COP(=O)(O)O)O[C@@H](n3cnc4c(=O)[nH]c(N)nc43)[C@H]2OC)O[C@@H](n2ccc(N)nc2=O)[C@H]1O` (stereo partly shown) [compound B]: the IC50 was 65 µM in assay [1] and ~80 µM in assay [3]. Besides, the “inhibition of polymerase activity (GpG-primed RNA synthesis)” value in assay [4] is on record as “lost the ability to inhibit the polymerase activity”.
